Each structure is given as a SMILES string. Bounds are passed on as bounds.

What is called IC50 is the midpoint of a concentration-inhibition curve. A high value points to lower potency.

The nature of one test: Half-maximal inhibition of [125I]CCK-33 binding to cholecystokinin receptor.
On to `O=C1Nc2ccc(Cl)cc2C(c2ccccc2)=N[C@@H]1Cc1c[nH]c2ccccc12`, for which the IC50 came out at 3.4 µM. In other words, the single-digit micromolar range.

A short description of the next test: Half-maximal inhibition of [125I]gastrin binding to guinea pig gastric glands.
As to `O=C(NC1N=C(c2ccccc2)c2ccccc2NC1=O)c1ccc(Cl)cc1` (stereo not drawn), the IC50 amounted to 8.2 µM. Regarding `O=C(NC1N=C(c2ccccc2F)c2ccccc2NC1=O)c1ccc(C(F)(F)F)cc1` (stereo not drawn), the IC50 is 9.5 µM. The same measure, in the same setting: the value for `CN1C(=O)[C@@H](NC(=O)C(C)(C)C)N=C(c2ccccc2)c2ccccc21` was 13 µM. Still for that read-out and setting: the value for `O=C(NC1N=C(c2ccccc2)c2ccccc2NC1=O)c1ccc(-c2ccccc2)cc1` (stereo not drawn) was greater than 100 µM; that for `CC(C)C(=O)N[C@H]1N=C(c2ccccc2)c2ccccc2N(C)C1=O` was 73 µM. Still for that read-out and setting: the result for `CN1C(=O)C(NC(=O)c2ccc(C(C)(C)C)cc2)N=C(c2ccccc2F)c2ccccc21` (stereo not drawn) reads 6.4 µM; that for `CN1C(=O)[C@H](NC(=O)c2ccccc2Cl)N=C(c2ccccc2F)c2ccccc21`, 3.7 µM. On to `CC(C)(C)c1ccc(C(=O)NC2N=C(c3ccccc3)c3ccccc3NC2=O)cc1` (stereo not drawn) [4-tert-Butyl-N-(2-oxo-5-phenyl-2,3-dihydro-1H-benzo[e][1,4]diazepin-3-yl)-benzamide: 0.12CHCl3], for which the IC50 is 40 µM. Same read-out and setting: the value for `CN1C(=O)C(NC(=O)c2ccc(Cl)cc2)[N+]([O-])=C(c2ccccc2F)c2ccccc21` (stereo not drawn) was 2.4 µM.

The compound `CN(C(=O)c1cc2ccccc2[nH]1)C1N=C(c2ccccc2)c2ccccc2NC1=O` (stereo not drawn) gave a half-maximal inhibitory concentration (IC50) greater than 10 µM.

`O=C(NC1N=C(c2ccccc2)c2ccccc2NC1=O)c1ccc(C(F)(F)F)cc1` (stereo not drawn) displayed an IC50 of 36 µM. This counts as double-digit micromolar. Same read-out and setting: the result for `O=C(NC1N=C(c2ccccc2)c2ccccc2NC1=O)c1ccccc1Cl` (stereo not drawn) [2-Chloro-N-(2-oxo-5-phenyl-2,3-dihydro-1H-benzo[e][1,4]diazepin-3-yl)-benzamide. 0.02CHCl3] reads 52 µM. On the same count and under the same terms, the result for `CN1C(=O)[C@@H](NC(=O)c2ccc(C#N)cc2)N=C(c2ccccc2F)c2ccccc21` reads 9 µM. On the same count and under the same terms, the value for `O=C(NC1N=C(c2ccccc2)c2ccccc2NC1=O)c1ccc2ccccc2c1` (stereo not drawn) was 14 µM; that for `O=C(NC1N=C(c2ccccc2)c2ccccc2NC1=O)c1cccc2ccccc12` (stereo not drawn) was 29 µM. Consider `CN1C(=O)[C@@H](NC(=O)c2cc3ccccc3[nH]2)N=C(c2ccccc2F)c2ccccc21`, for which the IC50 worked out at 0.028 µM. In turn, `O=C(NC1N=C(c2ccccc2)c2ccccc2NC1=O)c1c[nH]c2ccccc12` (stereo not drawn) came in with an IC50 of 18 µM. On the same count and under the same terms, the result for `CCOC(=O)CN1C(=O)C(NC=O)N=C(c2ccccc2)c2ccccc21` (stereo not drawn) reads 25 µM; that for `CN1C(=O)[C@@H](NC(=O)c2ccc(C(F)(F)F)cc2)N=C(c2ccccc2F)c2ccccc21`, 0.44 µM. The same measure, in the same setting: the value for `CN1C(=O)[C@@H](NC(=O)c2ccc(Br)cc2)N=C(c2ccccc2F)c2ccccc21` was 0.68 µM. Still for that read-out and setting: the result for `Cc1ccc(C(=O)NC2N=C(c3ccccc3F)c3ccccc3NC2=O)cc1` (stereo not drawn) reads 5 µM; that for `O=C(NC1N=C(c2ccccc2F)c2ccccc2NC1=O)c1ccc([N+](=O)[O-])cc1` (stereo not drawn), greater than 10 µM; that for `O=C(NC1N=C(c2ccccc2)c2ccccc2NC1=O)c1ccc(F)cc1` (stereo not drawn), 9.4 µM. With `CN1C(=O)C(NC(=O)c2ccc(Br)cc2)N=C(c2ccccc2)c2ccccc21` (stereo not drawn) [4-Bromo-N-(1-methyl-2-oxo-5-phenyl-2,3-dihydro-1H-benzo[e][1,4]diazepin-3-yl)-benzamide:0.05C3H6O], the IC50 is 1.7 µM. The compound `CN1C(=O)C(NC(=O)[C@H](Cc2ccccc2)NC(=O)OC(C)(C)C)N=C(c2ccccc2F)c2ccccc21` (stereo partly drawn) registered an IC50 of 1.2 µM. In turn, `CN1C(=O)C(NC(=O)c2ccccc2Cl)N=C(c2ccccc2)c2ccccc21` (stereo not drawn) registered an IC50 of 30 µM. Same read-out and setting: the value for `CN1C(=O)[C@@H](NC(=O)c2cccc(Br)c2)N=C(c2ccccc2F)c2ccccc21` was 0.75 µM; that for `O=C(NC1N=C(c2ccccc2F)c2ccccc2NC1=O)c1ccsc1` (stereo not drawn) was greater than 10 µM. On the same count and under the same terms, the value for `O=C(O)CN1C(=O)C(NC(=O)c2cc3ccccc3[nH]2)N=C(c2ccccc2)c2ccccc21` (stereo not drawn) [CCK antagonist synthetic 20] was 0.65 µM; that for `CC(C)CCC(=O)N[C@H]1N=C(c2ccccc2)c2ccccc2N(C)C1=O` was 130 µM; that for `CCCc1ccc(C(=O)NC2N=C(c3ccccc3)c3ccccc3NC2=O)cc1` (stereo not drawn) was 80 µM. As for `O=C(NC1N=C(c2ccccc2F)c2ccccc2NC1=O)c1cc2cc(Br)ccc2[nH]1` (stereo not drawn), the IC50 is greater than 10 µM. `CN1C(=O)C(N(C)C(=O)c2ccccc2Cl)N=C(c2ccccc2)c2ccccc21` (stereo not drawn) showed an IC50 greater than 100 µM. Consider `CN1C(=O)C(NC(=O)C(Cc2ccccc2)NC(=O)OC(C)(C)C)N=C(c2ccccc2F)c2ccccc21` (stereo not drawn), for which the IC50 amounted to 2.9 µM. Same read-out and setting: the value for `COc1ccc(C(=O)NC2N=C(c3ccccc3F)c3ccccc3NC2=O)cc1` (stereo not drawn) was 5.4 µM; that for `O=C(NC1N=C(c2ccccc2F)c2ccccc2NC1=O)c1ccccc1` (stereo not drawn) was 28 µM; that for `CN1C(=O)[C@@H](NC(=O)c2ccccc2I)N=C(c2ccccc2F)c2ccccc21` was 11 µM. `CSc1ccc(C(=O)NC2N=C(c3ccccc3)c3ccccc3NC2=O)cc1` (stereo not drawn) displayed an IC50 of 8 µM. Take `O=C(NC1N=C(c2ccccc2F)c2ccccc2NC1=O)c1ncc2ccccc2n1` (stereo not drawn): the IC50 was greater than 10 µM. Still for that read-out and setting: the result for `CN1C(=O)[C@H](NC(=O)C2CCCCC2)N=C(c2ccccc2)c2ccccc21` reads 1.5 µM; that for `CN1C(=O)[C@H](NC(=O)[C@H](N)Cc2ccccc2)N=C(c2ccccc2)c2ccccc21` [(R)-2-amino-N-((R)-1-methyl-2-oxo-5-phenyl-2,3-dihydro-1H-benzo[e][1,4]diazepin-3-yl)-3-phenylpropanamide], 55 µM; that for `CN1C(=O)[C@@H](NC(=O)c2ccccc2I)N=C(c2ccccc2)c2ccccc21`, 38 µM.
